The source of these data is ChEMBL document CHEMBL3525982, “Metabolism and pharmacokinetics of indacaterol in humans” (Drug Metab Dispos, 2012).

Data set [1] deals with Serum. The data set can be described thus: Drug level in healthy human serum treated with [14C]indacaterol at 800 ug, po as single dose at 2 hrs by HPLC analysis relative to total radioactivity. It counts as ADME, organism-based. The note with it: in vivo.
Data set [2] concerns Serum. The data set can be described thus: Drug level in healthy human serum treated with [14C]indacaterol at 800 ug, po as single dose at 2 hrs by HPLC analysis. In kind it is ADME, organism-based. The note with it: in vivo.
Data set [3] can be described thus: Drug recovery in healthy human urine treated with [14C]indacaterol at 800 ug, po as single dose after 168 hrs postdose by liquid scintillation counting. The note with it: in vivo. In kind it is ADME, organism-based.
The subject of data set [4] is Serum. The data set can be described thus: AUC (0 to 24 hrs) in healthy human serum treated with [14C]indacaterol at 800 ug, po as single dose by HPLC analysis relative to total radioactivity. In kind it is ADME, organism-based. The note with it: in vivo.
Data set [5] is described as follows: Drug recovery in healthy human feces treated with [14C]indacaterol at 800 ug, po as single dose after 168 hrs postdose by liquid scintillation counting. In kind it is ADME, organism-based. Particulars: in vivo.
For data set [6], the system named is Serum. In words: AUC (0 to 24 hrs) in healthy human serum treated with [14C]indacaterol at 800 ug, po as single dose by HPLC analysis. In kind it is ADME, organism-based. Set-up: time < 24 hr, dose 800 ug, route oral. Particulars: in vivo.
The test system of data set [7] is Serum. In words: Drug metabolism in healthy human serum treated with [14C]indacaterol at 800 ug, po as single dose by HPLC analysis. Particulars: in vivo. In kind it is ADME, organism-based.
The nature of data set [8]: Drug recovery in healthy human feces at 800 ug, po as single dose measured after 168 hrs postdose by liquid scintillation counting. It counts as ADME, organism-based. The note with it: in vivo.
Data set [9] in a line: Drug recovery in healthy human feces assessed as total radioactivity at 800 ug, po as single dose after 168 hrs postdose by liquid scintillation counting. It counts as ADME, organism-based. Particulars: in vivo.
For data set [10], the system named is Serum. The data set can be described thus: Drug metabolism in healthy human serum assessed as 5,6-diethyl-2,3-dihydro-1H-inden-2-amine formation at 800 ug, po as single dose by HPLC analysis. The note with it: in vivo. It counts as ADME, organism-based.
Data set [11] concerns Homo sapiens. The data set can be described thus: Cmax in healthy human assessed as total radioactivity at 800 ug, po as single dose by LC-MS/MS analysis. In kind it is ADME, organism-based. Set-up: dose 800 ug, route oral. The note with it: in vivo.
Data set [12] concerns Serum. In words: Drug metabolism in healthy human serum assessed as 2-(5,6-diethyl-2,3-dihydro-1H-inden-2-ylamino)acetic acid formation at 800 ug, po as single dose by HPLC analysis. It counts as ADME, organism-based. Particulars: in vivo.
Data set [13] has as its system Serum. The data set can be described thus: Drug metabolism in healthy human serum assessed as (2S,3S,4S,5R,6R)-6-((5,6-diethyl-2,3-dihydro-1H-inden-2-yl)((S)-2-hydroxy-2-(8-hydroxy-2-oxo-1,2-dihydroquinolin-5-yl)ethyl)amino)-3,4,5-trihydroxytetrahydro-2H-pyran-2-carboxylic acid formation at 800 ug, po as single dose by HPLC analysis. In kind it is ADME, organism-based. Particulars: in vivo.

The nature of data set [14]: Drug recovery in healthy human urine assessed as total radioactivity at 800 ug, po as single dose after 168 hrs postdose by liquid scintillation counting. The note with it: in vivo. It counts as ADME, organism-based.
Data set [15] concerns Serum. The data set can be described thus: Drug level in healthy human serum at 800 ug, po as single dose at 2 hrs by HPLC analysis. In kind it is ADME, organism-based. The note with it: in vivo.
Data set [16] relates to Homo sapiens. In words: Tmax in healthy human assessed as total radioactivity at 800 ug, po as single dose by LC-MS/MS analysis. In kind it is ADME, organism-based. Particulars: in vivo.
Data set [17] concerns Serum. The data set can be described thus: AUC (0 to 24 hrs) in healthy human serum at 800 ug, po as single dose by HPLC analysis. Set-up: time < 24 hr, dose 800 ug, route oral. The note with it: in vivo. In kind it is ADME, organism-based.
The test system of data set [18] is Serum. The data set can be described thus: AUC (0 to 24 hrs) in healthy human serum at 800 ug, po as single dose by HPLC analysis relative to total radioactivity. In kind it is ADME, organism-based. The note with it: in vivo.
In data set [19] the test system is Serum. In words: Drug level in healthy human serum at 800 ug, po as single dose at 2 hrs by HPLC analysis relative to total radioactivity. It counts as ADME, organism-based. Particulars: in vivo.
Data set [20] has as its system Homo sapiens. In words: AUC (0 to last) in healthy human assessed as total radioactivity at 800 ug, po as single dose by LC-MS/MS analysis. It counts as ADME, organism-based, Plasma. The note with it: in vivo.
Data set [21] can be described thus: Cmax in healthy human at 800 ug, po as single dose by LC-MS/MS analysis. In kind it is ADME, organism-based. Also on record: dose 800 ug, route oral. The note with it: in vivo.
Data set [22] in a line: Tmax in healthy human at 800 ug, po as single dose by LC-MS/MS analysis. Particulars: in vivo. It counts as ADME, organism-based.
A short description of data set [23]: AUC (0 to 12 hrs) in healthy human at 800 ug, po as single dose by LC-MS/MS analysis. The note with it: plasma. Also on record: dose 800 ug, time < 12 hr, route oral. In kind it is ADME, organism-based.
Data set [24] is described as follows: Drug recovery in healthy human feces at 800 ug, po as single dose after 168 hrs postdose by liquid scintillation counting. The note with it: in vivo. In kind it is ADME, organism-based.
The nature of data set [25]: Drug recovery in healthy human urine at 800 ug, po as single dose after 168 hrs postdose by liquid scintillation counting. It counts as ADME, organism-based. Particulars: in vivo.

Turning to `CCc1cc2c(cc1CC)CC(NC[C@H](O)c1ccc(O[C@@H]3O[C@H](C(=O)O)[C@@H](O)[C@H](O)[C@H]3O)c3[nH]c(=O)ccc13)C2`, the Drug uptake in data set [1] came out at 7.42%; in data set [2], 0.1 ngequiv/ml; in [4], 4.22%. Also, the Drug recovery in data set [3] stood at 0.53%; in data set [5] it was 0%. Besides, the AUC in data set [6] was 0.6 ng.Eq.hr/ml.
Regarding `CCc1cc2c(cc1CC)CC(N(C[C@H](O)c1ccc(O)c3[nH]c(=O)ccc13)[C@@H]1O[C@H](C(=O)O)[C@@H](O)[C@H](O)[C@H]1O)C2`, the Drug metabolism result in data set [7] is recorded as “metabolite_detected”.
In the case of `CCc1cc2c(cc1CC)CC(NCC(=O)O)C2`, the Drug recovery came to 0.97% in data set [3] and 0% in data set [5]. Further, the Drug metabolism result in [7] is “metabolite_detected”.
Take `CCc1cc2c(cc1CC)CC(N)C2`: the values for the Drug recovery in data set [3], in [5] and in data set [8] were 0%, 1.7% and “<= 6%”, respectively. The Drug metabolism entry in data set [7] is recorded as “metabolite_detected”.
Broadly, the Tmax is the time at which the peak concentration occurs. Regarding `CCc1cc2c(cc1[14CH2]C)CC(NC[C@H](O)c1ccc(O)c3[nH]c(=O)ccc13)C2` (stereo partly drawn), the Drug recovery was 85.3% in data set [9] and 9.7% in [14]. Moreover, the Drug metabolism entry in data set [10], in [12] and in [13] was “metabolite_detected” in each case. The Cmax in data set [11] is recorded as 1.4 ng.Eq/ml. Also, the Drug uptake is 0.42 ngequiv/ml in [15], 32.5% in [18] and 31.4% in data set [19]. In addition, the Tmax in [16] stood at 2.5 h. In addition, the AUC in data set [17] was 4.58 ng.Eq.hr/ml. Moreover, the AUClast in data set [20] turned out to be 27.2 ng.Eq.hr/ml.
Regarding `CCc1cc2c(cc1C(C)O)CC(NC[C@H](O)c1ccc(O[C@@H]3O[C@H](C(=O)O)[C@@H](O)[C@H](O)[C@H]3O)c3[nH]c(=O)ccc13)C2` (stereo partly drawn), the Drug uptake is listed as 9.31% in data set [1], 0.12 ngequiv/ml in data set [2] and 5.78% in data set [4]. Also, the Drug recovery in data set [3] was 0.83%; in data set [5], 0%. The AUC in [6] came to 0.82 ng.Eq.hr/ml.
As for `CCc1cc2c(cc1C(C)O)CC(NC[C@H](O)c1ccc(O)c3[nH]c(=O)ccc13)C2` (stereo in doubt; P26.9), the values for the Drug uptake in data set [1], in [2] and in data set [4] were 13.2%, 0.18 ngequiv/ml and 12.4%, respectively. In addition, the results for the Drug recovery in [3], in data set [5] and in data set [8] were 1.24%, 17.44% and 17%, respectively. The AUC in data set [6] worked out at 1.8 ng.Eq.hr/ml.
Take `CCc1cc2c(cc1C(C)O)CC(NC[C@H](O)c1ccc(O)c3[nH]c(=O)ccc13)C2` (stereo in doubt; P30.3): the Drug recovery in [3] is listed as 0.31%; in [5], 6.33%; in data set [8], “<= 6%”.
Usually AUC(0-t) stands for the area under the concentration-time curve up to a stated or last time point. As for `CCc1cc2c(cc1CC)CC(NC[C@H](O)c1ccc(O)c3[nH]c(=O)ccc13)C2.O=C(O)/C=C\C(=O)O` [INDACATEROL MALEATE], in data set [21], the Cmax came out at 0.47 ng/mL. Besides, the Tmax in data set [22] was found to be 1.75 h. Further, the area under the curve AUC(0-t) at 12 h in data set [23] was determined as 1.81 ng·h/mL. Also, the figures for the Drug recovery in data set [24], in data set [25] and in [8] were 54.42%, 0.34% and 54%, respectively.
